In assay [1] the target is Human Full Length PARG (Homo sapiens (Human), UniProt Q86W56). Briefly: PARG enzyme assay (TR-FRET). The assay is classed as biochemical.
The subject of assay [2] is PARG in HeLa cell line. As to the kind of experiment: PARG cell assay (PAR chain immunofluorescence after MMS). Conditions: HeLa cells. It is filed as cell-based. On the procedure:
This method is based on the detection of endogenous levels of poly (ADP) ribose chains present in the nucleus of HeLa cell line using indirect immunofluorescence. MMS stimulation increases PAR chains for up to 25 mins. After that point, PARG is active and breaks down the PAR chains, until by one hour after stimulation no PAR chains are detectable. Inhibition of PARG maintains PAR chains.
Briefly, following compound treatment and treatment with the DNA damaging agent methylmethanesulfonate (MMS), the cell monolayer is fixed, then permeabilised and incubated with a mouse monoclonal antibody raised against multimers of poly(ADP) ribose.
At the end of the 1 h dosing period, MMS was added to duplicates at a final concentration of 50 μg/mL, for a further hour.
Media was tipped off and the cells fixed with 50 μL ice-cold 95% MetOH/PBS for 15 mins at −20° C. Following a PBS wash, 50 μL PBS/0.1% Triton was added to the cells for 20 mins. Following another PBS wash, anti-PAR antibody (Calbiochem AM80) was diluted 1:4000 in a buffer (PBS+0.5% FBS+0.05% Tween20) and added to the cells and incubated overnight at 4° C.
Cells were washed three times with PBS and the plate sealed with a light-proof seal.

Setting [3] is: Homo sapiens, MMS treatment, read-out: PARG Cell IC50.
[4] abbreviates: read-out: PARG Biochem IC50 Geomean.
[5] abbreviates: Homo sapiens, MMS 50 μg/mL, read-out: PARG Cell IC50 Geomean.
The mark [6] stands for this setting: MMS treatment, read-out: PARG Cell IC50.

Read-outs that look alike come from different tables or passages of the source.

Sequence of Human Full Length PARG (Q86W56 whole entry): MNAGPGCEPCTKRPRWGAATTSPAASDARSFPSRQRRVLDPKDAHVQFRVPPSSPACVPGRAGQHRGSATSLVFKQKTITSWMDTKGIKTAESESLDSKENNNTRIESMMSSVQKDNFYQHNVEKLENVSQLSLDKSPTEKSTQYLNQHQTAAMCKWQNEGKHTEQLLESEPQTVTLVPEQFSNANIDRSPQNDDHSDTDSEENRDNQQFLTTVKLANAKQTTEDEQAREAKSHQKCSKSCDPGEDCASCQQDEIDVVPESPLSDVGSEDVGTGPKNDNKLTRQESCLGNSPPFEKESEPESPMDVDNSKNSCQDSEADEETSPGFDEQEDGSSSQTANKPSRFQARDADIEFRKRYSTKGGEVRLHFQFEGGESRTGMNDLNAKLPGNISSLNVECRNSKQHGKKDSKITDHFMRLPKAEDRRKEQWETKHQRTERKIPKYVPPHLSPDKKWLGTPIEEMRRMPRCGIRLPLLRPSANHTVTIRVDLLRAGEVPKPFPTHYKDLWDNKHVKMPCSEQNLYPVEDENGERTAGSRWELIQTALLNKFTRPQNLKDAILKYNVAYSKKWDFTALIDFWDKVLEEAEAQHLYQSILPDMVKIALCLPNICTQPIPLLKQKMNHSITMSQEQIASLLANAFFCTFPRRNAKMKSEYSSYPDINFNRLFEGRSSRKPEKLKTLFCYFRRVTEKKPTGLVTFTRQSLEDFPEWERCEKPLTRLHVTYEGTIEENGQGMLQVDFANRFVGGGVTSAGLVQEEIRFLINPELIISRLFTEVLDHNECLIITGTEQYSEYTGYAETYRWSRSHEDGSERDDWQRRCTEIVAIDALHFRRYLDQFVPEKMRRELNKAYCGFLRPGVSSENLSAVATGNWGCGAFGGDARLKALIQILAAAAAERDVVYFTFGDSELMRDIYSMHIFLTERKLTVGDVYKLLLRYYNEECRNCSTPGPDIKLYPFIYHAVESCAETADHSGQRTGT

As for `Cn1cc(Cc2cc3cc(S(=O)(=O)NC4(C)CC4)ccc3[nH]c2=O)cn1` [Example 486, N-(1-Methylcyclopropyl)-3-[(1-methylpyrazol-4-yl)methyl]-2-oxo-1H-quinoline-6-sulfonamide], the IC50 in assay [1] (read-out: PARG Biochem IC50) is 1620 nM; in assay [2] (setting [3]) it was 2280 nM.

As to `Cc1nc(C)c(Cn2c(=O)n(Cc3cnn(C)c3)c(=O)c3cc(S(=O)(=O)NC4(C)CC4)c(F)cc32)s1` [Example 396, 1-[(2,4-Dimethylthiazol-5-yl)methyl]-7-fluoro-N-(1-methylcyclopropyl)-3-[(1-methylpyrazol-4-yl)methyl]-2,4-dioxo-quinazoline-6-sulfonamide], the results for the IC50 in assay [1] (setting [4]) and in assay [2] (setting [5]) were 11 nM and 17 nM, respectively.

Take `Cc1cc(Cn2c(=O)c3cc(S(=O)(=O)NC4(CF)CC4)ccc3n(C)c2=O)on1` [Example 514, N-[1-(Fluoromethyl)cyclopropyl]-1-methyl-3-[(3-methylisoxazol-5-yl)methyl]-2,4-dioxo-quinazoline-6-sulfonamide]: the figures for the IC50 in assay [1] (read-out: PARG Biochem IC50) and in assay [2] (setting [3]) were 384 nM and 178 nM, respectively.

For `Cc1nc(C)c(Cn2c(=O)n(C)c(=O)c3cc(S(=O)(=O)NC4(C#N)CC4)ccc32)s1` [Example 204], the IC50 in assay [1] (setting [4]) is 118 nM; in assay [2] (setting [5]), 646 nM.

Regarding `CC[C@H](C)Cn1c(=O)n(Cc2cc(C)no2)c(=O)c2cc(S(=O)(=O)NC3(C)CC3)ccc21` [Example 466, 1-[(2S)-2-Methylbutyl]-N-(1-methylcyclopropyl)-3-[(3-methylisoxazol-5-yl)methyl]-2,4-dioxo-quinazoline-6-sulfonamide], the IC50 in assay [1] (read-out: PARG Biochem IC50) came out at 274 nM; in assay [2] (setting [6]) it was 232 nM.

On to `Cn1cc(Cn2c(=O)c3cc(S(=O)(=O)NC4(CF)CC4)ccc3n(CC3CCCC3)c2=O)cn1` [Example 608, 1-(Cyclopentylmethyl)-N-[1-(fluoromethyl)cyclopropyl]-3-[(1-methylpyrazol-4-yl)methyl]-2,4-dioxo-quinazoline-6-sulfonamide], for which the IC50 in assay [1] (read-out: PARG Biochem IC50) is 64 nM; in assay [2] (setting [3]) it was 50 nM.

On to `Cn1cc(Cn2c(=O)c3cc(S(=O)(=O)NC4(C#N)CC4)ccc3n(C)c2=O)cn1` [Example 344], for which the values for the IC50 in assay [1] (setting [4]) and in assay [2] (setting [5]) were 491 nM and 2110 nM, respectively.

In the case of `CC1(NS(=O)(=O)c2ccc3c(c2)c(=O)n(CC#N)c(=O)n3Cc2ccc(F)cc2)CC1` [Example 186], the IC50 in assay [1] (setting [4]) was 441 nM; in assay [2] (setting [5]), 307 nM.

On to `Cn1cc(Cn2c(=O)c3cc(S(=O)(=O)NC4(CF)CC4)ccc3n(Cc3nncn3C)c2=O)cn1` [Example 584, N-[1-(Fluoromethyl)cyclopropyl]-3-[(1-methylpyrazol-4-yl)methyl]-1-[(4-methyl-1,2,4-triazol-3-yl)methyl]-2,4-dioxo-quinazoline-6-sulfonamide], for which the IC50 in assay [1] (read-out: PARG Biochem IC50) amounted to 171 nM; in assay [2] (setting [6]) it was 25800 nM.

For the molecule `Cc1cc(Cn2nc(NCCN(C)C)c3ccc(S(=O)(=O)NC4(C)CC4)cc3c2=O)on1` [Example 253], the IC50 turned out to be 376 nM in assay [1] (setting [4]) and 2020 nM in assay [2] (setting [5]).

`Cn1cc(Cn2c(=O)c3cc(S(=O)(=O)NC4(CF)CC4)ccc3n(CC3CC3(F)F)c2=O)cn1` (centres unmarked) [Example 443, 1-[(2,2-Difluorocyclopropyl)methyl]-N-[1-(fluoromethyl)cyclopropyl]-3-[(1-methylpyrazol-4-yl)methyl]-2,4-dioxo-quinazoline-6-sulfonamide]: the IC50 in assay [1] (read-out: PARG Biochem IC50) was found to be 58 nM; in assay [2] (setting [3]), 67 nM.

For the molecule `COC(C)(C)Cn1c(=O)n(Cc2cc(C)no2)c(=O)c2cc(S(=O)(=O)NC3(C)CC3)ccc21` [Example 413, 1-(2-Methoxy-2-methyl-propyl)-N-(1-methylcyclopropyl)-3-[(3-methylisoxazol-5-yl)methyl]-2,4-dioxo-quinazoline-6-sulfonamide], the IC50 in assay [1] (read-out: PARG Biochem IC50) turned out to be 469 nM; in assay [2] (setting [3]), 305 nM.

Consider `Cn1cc(Cn2c(=O)c3cc(S(=O)(=O)NC4(C)CC4)c(F)cc3n(Cc3ccc(F)cc3)c2=O)cn1` [Example 390, 7-Fluoro-1-[(4-fluorophenyl)methyl]-N-(1-methylcyclopropyl)-3-[(1-methylpyrazol-4-yl)methyl]-2,4-dioxo-quinazoline-6-sulfonamide], for which the IC50 in assay [1] (setting [4]) turned out to be 102 nM; in assay [2] (MMS 50 μg/mL, read-out: PARG Cell IC50 Geomean), 70 nM.

With `Cn1cc(Cn2c(=O)c3cc(S(=O)(=O)NC4(CF)CC4)ccc3n(CC(F)(F)F)c2=O)cn1` [Example 623, N-[1-(Fluoromethyl)cyclopropyl]-3-[(1-methylpyrazol-4-yl)methyl]-2,4-dioxo-1-(2,2,2-trifluoroethyl)quinazoline-6-sulfonamide], the IC50 in assay [1] (read-out: PARG Biochem IC50) turned out to be 2670 nM; in assay [2] (setting [3]), 10000 nM.

As for `Cc1cc(Cn2c(=O)c3cc(S(=O)(=O)NC4(CF)CC4)ccc3n(Cc3cnn(C)c3)c2=O)on1` [Example 555, N-[1-(Fluoromethyl)cyclopropyl]-3-[(3-methylisoxazol-5-yl)methyl]-1-[(1-methylpyrazol-4-yl)methyl]-2,4-dioxo-quinazoline-6-sulfonamide], the values for the IC50 in assay [1] (read-out: PARG Biochem IC50) and in assay [2] (setting [3]) were 49 nM and 86 nM, respectively.

With `Cc1cc(Cn2c(=O)c3cc(S(=O)(=O)NC4(C)CC4)cc(Br)c3n(C)c2=O)on1` [Example 482, 8-Bromo-1-methyl-N-(1-methylcyclopropyl)-3-[(3-methylisoxazol-5-yl)methyl]-2,4-dioxo-quinazoline-6-sulfonamide], the IC50 in assay [1] (read-out: PARG Biochem IC50) turned out to be 830 nM; in assay [2] (setting [3]), 274 nM.

On to `Cc1cc(Cn2c(=O)c3cc(S(=O)(=O)NC4(C)CC4)ccc3n(CCO)c2=O)on1` [Example 337], for which the half-inhibitory concentration (IC50) in assay [1] (setting [4]) was 417 nM; in assay [2] (setting [5]), 772 nM.

Consider `Cc1ccnc(Cn2c(=O)n(Cc3cnn(C)c3)c(=O)c3cc(S(=O)(=O)NC4(CF)CC4)ccc32)c1` [Example 571, N-[1-(Fluoromethyl)cyclopropyl]-3-[(1-methylpyrazol-4-yl)methyl]-1-[(4-methyl-2-pyridyl)methyl]-2,4-dioxo-quinazoline-6-sulfonamide], for which the IC50 in assay [1] (read-out: PARG Biochem IC50) was 330 nM; in assay [2] (setting [3]) it was 373 nM.

With `Cn1ncc(Cn2c(=O)c3cc(S(=O)(=O)NC4(CF)CC4)ccc3n(C)c2=O)n1` [Example 626, N-[1-(Fluoromethyl)cyclopropyl]-1-methyl-3-[(2-methyltriazol-4-yl)methyl]-2,4-dioxo-quinazoline-6-sulfonamide], the IC50 in assay [1] (read-out: PARG Biochem IC50) is 3160 nM; in assay [2] (setting [6]), 1810 nM.

With `Cc1cc(Cn2c(=O)c3cc(S(=O)(=O)NC4(C)CC4)ccc3n(CC3CCOC3)c2=O)on1` (centres unmarked) [Example 268], the IC50 is 111 nM in assay [1] (setting [4]) and 217 nM in assay [2] (setting [5]).

With `C#CCn1c(=O)n(Cc2cnn(C)c2)c(=O)c2cc(S(=O)(=O)NC3(CF)CC3)ccc21` [Example 440, N-[1-(Fluoromethyl)cyclopropyl]-3-[(1-methylpyrazol-4-yl)methyl]-2,4-dioxo-1-prop-2-ynyl-quinazoline-6-sulfonamide], the concentration for half-maximal inhibition (IC50) in assay [1] (read-out: PARG Biochem IC50) came to 68 nM; in assay [2] (setting [6]) it was 50 nM.

`Cn1cc(Cn2c(=O)c3cc(S(=O)(=O)NC4(CF)CC4)ccc3n(Cc3cnn(C)n3)c2=O)cn1` [Example 596, N-[1-(Fluoromethyl)cyclopropyl]-3-[(1-methylpyrazol-4-yl)methyl]-1-[(2-methyltriazol-4-yl)methyl]-2,4-dioxo-quinazoline-6-sulfonamide]: the results for the IC50 in assay [1] (read-out: PARG Biochem IC50) and in assay [2] (setting [3]) were 85 nM and 96 nM, respectively.

In the case of `Cc1cc(Cn2c(=O)c3cc(S(=O)(=O)NC4(C)CC4)ccc3n(CCC(C)C)c2=O)on1` [Example 472, 1-Isopentyl-N-(1-methylcyclopropyl)-3-[(3-methylisoxazol-5-yl)methyl]-2,4-dioxo-quinazoline-6-sulfonamide], the IC50 in assay [1] (read-out: PARG Biochem IC50) worked out at 273 nM; in assay [2] (setting [3]), 198 nM.

For `Cc1cc(Cn2c(=O)c3cc(S(=O)(=O)NC4(C)CC4)cc(-c4ccc(C)s4)c3n(C)c2=O)on1` [Example 493, 1-Methyl-N-(1-methylcyclopropyl)-3-[(3-methylisoxazol-5-yl)methyl]-8-(5-methyl-2-thienyl)-2,4-dioxo-quinazoline-6-sulfonamide], the IC50 in assay [1] (read-out: PARG Biochem IC50) stood at 453 nM; in assay [2] (setting [3]), 524 nM.

For the molecule `Cc1cc(Cn2c(=O)c3cc(S(=O)(=O)NC4(C)CC4)ccc3n(CC(F)F)c2=O)on1` [Example 324], the IC50 in assay [1] (setting [4]) was 331 nM; in assay [2] (setting [5]), 272 nM.

For the molecule `Cn1cc(Cn2c(=O)c3cc(S(=O)(=O)NC4(C)CC4)ccc3n(CC3CC3(F)F)c2=O)cn1` (centres unmarked) [Example 435, 1-[(2,2-Difluorocyclopropyl)methyl]-N-(1-methylcyclopropyl)-3-[(1-methylpyrazol-4-yl)methyl]-2,4-dioxo-quinazoline-6-sulfonamide], the IC50 in assay [1] (read-out: PARG Biochem IC50) came to 104 nM; in assay [2] (setting [3]), 46 nM.

As for `Cn1cc(Cn2c(=O)c3cc(S(=O)(=O)NC4(C)CC4)ccc3n(CC3CC(C)(C)O3)c2=O)cn1` (centres unmarked) [Example 351], the figures for the IC50 in assay [1] (setting [4]) and in assay [2] (setting [5]) were 229 nM and 358 nM, respectively.

In the case of `Cc1cc(Cn2c(=O)c3cc(S(=O)(=O)NC4(CF)CC4)ccc3n(CC3CC3)c2=O)on1` [Example 517, 1-(Cyclopropylmethyl)-N-[1-(fluoromethyl)cyclopropyl]-3-[(3-methylisoxazol-5-yl)methyl]-2,4-dioxo-quinazoline-6-sulfonamide], the concentration for half-maximal inhibition (IC50) came to 56 nM in assay [1] (read-out: PARG Biochem IC50) and 41 nM in assay [2] (setting [3]).

(Values after US10239843B2 (CANCER RESEARCH TECHNOLOGY LIMITED, priority 2014, dated 2019).)
